In a melting point compilation (Tetko et al.; mined from patent text by program, amines drawn as free bases though some values may be those of a salt):

SMILES	melting point
Clc1ccc(-c2oncc2-c2ccncc2)cc1	121 °C
CS(=O)(=O)c1ccc(-c2ccc(Br)n2-c2ccc(F)cc2)cc1	174 to 176 °C
N#CC(=Cc1ccc(Cl)cc1)c1c(Cl)cc(N2N=CCNC2=O)cc1Cl	83 to 85 °C
O=C(O)C1CCCN(C(=O)COC2CCN(C(=O)OCc3ccccc3)CC2)C1 (configuration not stated)	102 to 104 °C
COc1ccc(S(=O)(=O)Nc2ccncc2)c2c1[nH]c1ccccc12	311 to 313 °C
Fc1cccc2c1OC1CN(Cc3ccccc3)CC1O2 (configuration not stated)	80 to 81 °C
O=c1oc2ccccc2c2oc(=S)c(-c3ccccc3)cc12	256 to 257 °C
COC(=O)c1ccc(-c2nc(-c3ccc(Br)cc3)cs2)cc1	206 to 207 °C
Cc1cc(Oc2ccc(NC(=O)c3ccccc3C(c3ccc(O)cc3)c3ccc(O)cc3)cn2)cc(C)c1Cl	125 °C
O=C1N(CCCCCl)CCN1C1CCCCC1	30 to 35 °C
CCCCc1ccc(C(=O)Oc2ccc(C=O)cc2)cc1	49.7 °C
O=C(O)CCCCCC1=CCCC1=O	70 to 72 °C
O=c1[nH]c2scnc2c2ccccc12	> 200 °C
O=C1N(Cc2ccc(Cl)s2)c2cccc(Cl)c2C12COc1cc3c(cc12)OCO3 (configuration not stated)	167 to 168 °C
Cc1cccc(CN2CCCN(C)C(=O)[C@H]2NC(=O)OCc2ccccc2)c1	70 to 71 °C
O=C(O)c1nc2ccc(Oc3ccccc3)cc2cc1OCc1ccccc1	281 to 283 °C
Cn1ncnc1COc1nn2c(-c3ccccc3F)nncc2c1I	218 to 219 °C
O=C(O)c1cc(I)c(F)c(F)c1F	167 to 171 °C
COc1ccc2c(CCBr)c[nH]c2c1	98 to 101 °C
OCCC1(c2ccccn2)CCNC1 (configuration not stated)	50 to 55 °C
CN(C1CCNCC1)S(=O)(=O)c1ccc(Nc2nccc(-c3ccc(F)cc3)n2)cc1	116 °C
COC(=O)CCCc1cc2cc(Cl)ccc2n1S(=O)(=O)c1ccc2ccccc2c1	116 to 118 °C
Cc1cnc(Oc2cccc(C(F)(F)F)c2)c(C(=O)Nc2ccc(F)cc2F)c1	133 to 135 °C
CC(=O)OCC1OC(n2c(=O)sc3cnc(N)nc32)C(OC(C)=O)C1OC(C)=O (configuration not stated)	121 to 123 °C
CC1(C)CCOc2ccc(C(=O)c3ccc(C(=O)O)cc3)cc21	199 °C
CS(=O)(=O)c1ccc(-c2cnn(-c3ccc(S(N)(=O)=O)cc3)c(=O)c2-c2ccc(F)cc2)cc1	213 to 216 °C

SMILES	melting point
CC(C)CC1(Cn2cnc3ccccc32)Sc2[nH]c(=O)n(C)c(=O)c2C1Sc1cccs1 (configuration not stated)	198 °C
Cc1nc(-n2c(=O)ccc3cc(OCc4ccccc4)ccc32)sc1C(=O)NCc1ccccc1	213 to 216 °C
CCOC(=O)[C@@H](O)[C@@H]1OC(=O)c2c1cc(OC)c(OC)c2OC	111 to 112 °C
c1cc(-c2nc3c4c(ncc3[nH]2)CCOC4)no1	> 300 °C
Clc1ccccc1-n1nnnc1Cl	101 to 103 °C
COC(=O)CN(C)c1nc(-c2ccc(Br)cc2)cs1	86 °C
O=C(O)C1(c2ccc(I)cc2)CC1	150 to 152 °C
CCOC(=O)c1cc2cc(-c3ccccc3)ccc2[nH]1	173 to 174 °C
CC(C)(C)OC(=O)CC1(O)CCc2c([nH]c3ccccc23)C1=O (configuration not stated)	156 to 157 °C
CCN(CCN(C)C)c1ccc(-c2ccnc(Nc3cc(OC)c(OC)c(OC)c3)n2)cn1	90 °C
Cc1cc(O)ccc1Nc1ccccc1C(=O)O	209 to 211 °C
OCc1cnoc1-c1ccc2c(c1)OCO2	92 to 93 °C
CCCCC(=O)Nc1ncc([N+](=O)[O-])s1	155 to 156 °C
COc1cc2nc(N)nc(-c3cccc(CO)c3)c2cc1OC	230 to 232 °C
COC(=O)c1ccc(-c2nc(-c3cc(C(F)(F)F)cc(C(F)(F)F)c3)co2)cc1	180 to 181 °C
CCn1c(=O)n(O)c(=O)c2cc(F)c(F)cc21	172 to 174 °C
Cn1cccc1C1=CC(=O)c2ccccc2C1=O	95 to 96 °C
CC(C)c1ccc(S(=O)(=O)n2c(CCCC(=O)O)cc3nc(C(F)(F)F)ccc32)cc1	144 °C
O=Cc1cn(Cc2ccc(Cl)cc2)nc1CN1CCC(c2ccccc2)(c2ccccc2)CC1	133 to 134 °C
CC(C)(CCl)C(=O)N(O)c1ccccc1	120 to 121 °C
CC(C)(CO)Oc1ccc2c(c1)CCc1c-2ccc2c1CCC2(C)C	122 to 125 °C
COc1ccc(C(=O)Nc2ccc(Cl)c(Cl)c2)cc1NCc1cccnc1	145 to 147 °C
NS(=O)(=O)c1cc(C(=O)c2ccc3c(c2)CCC3)ccc1Cl	164 to 166 °C
CN(C)CCOc1cc(-c2ccccc2)on1	28 to 29 °C
CC(=O)CS(=O)(=O)C(c1ccc(Cl)cc1)c1ccc(Cl)cc1	114 to 115 °C
CC(=O)OCCCC(=O)CC(=O)c1ccccc1	48 to 49 °C

SMILES	melting point
CNC(=O)N(C)C1=NN(C(C)=O)C(C)(C)S1	151 to 154 °C
CN(C)CCCOc1ccc(-c2nnc(CSCCOc3ccccc3)o2)cc1	70 °C
Cc1sc(C)c(CCl)c1CCl	68 to 70 °C
COc1ccc(-n2nc(Sc3ccc(C(C)(C)C)cc3)c(C)c(C#N)c2=O)cc1	186 to 188 °C
Cc1ccc(S(=O)(=O)N2CC3=C(C2)C(Cc2ccccc2)NCC3)cc1 (configuration not stated)	196 °C
O=C(O)C1CCCC(C(=O)O)C1 (configuration not stated)	163 to 165 °C
CC(C)COc1ccc(-c2nc3c(C(=O)O)cccc3[nH]2)cc1C#N	299 to 302 °C
CC1CCCN1c1ccc(C#N)c2occc12 (configuration not stated)	82 to 83 °C
Fc1cc(CNC(=S)NCC(F)(F)F)ccc1OCC(F)(F)F	88 to 90 °C
C[Si](C)(C)c1ccc2c(c1)cc(C(=O)Nc1ccc(N3CC(O)C3)nc1)n2Cc1cccc(F)c1	207 to 208 °C
Brc1ccc(-c2ccc(-c3ccc(Br)cc3)o2)cc1	198 to 199 °C
COc1ccc(C(=O)Nc2ccc(C(=O)O)cc2)cc1C12CC3CC(CC(C3)C1)C2	286 to 287 °C
CC(C)[Si](Oc1ccc([C@@H](O)[C@@H](C)N2CCC(O)(c3ccccc3)CC2)cc1F)(C(C)C)C(C)C (relative stereo)	140 to 141 °C
COc1cc(N=C2SC(=CC(=O)O)C(=O)N2c2cc(OC)c(OC)c(OC)c2)cc(OC)c1OC	250 to 252 °C
O=[N+]([O-])c1ccc(Cl)c2c(Cl)ccnc12	116 to 118 °C
NC(=O)c1cc(C(O)CNCCCn2nnc3ccccc32)ccc1O (configuration not stated)	154 to 155 °C
COc1ccc(C(=O)CC2CCCN(C)C2)cc1 (configuration not stated)	89 to 92 °C
COc1ccc(-c2cc(=O)n(C)c(=O)n2CC(O)CNC(C)(C)C)cc1OC (configuration not stated)	123 to 125 °C
CCN(CC)CCOC(=C1C2CC3C(C2)C13)c1ccccc1	120 to 123 °C
CCCNC(C)=C1C(=O)OC(=O)C(C(C)=O)=C1O	145 to 148 °C
N#Cc1ccc(NC(=O)c2cc(-c3ccc(F)cc3F)ccc2O)cc1	189 to 190 °C
CCN1C(=O)C(C)(C)C(=O)N(C)c2cc(CN(CCn3ccc4oc(C)cc4c3=O)Cc3ccc(C=O)cc3)ccc21	153 to 155 °C
CC(C)(C)OC(=O)[C@@H]1CCCN1C(=O)CCC(=O)c1ccc(Br)cc1	70 to 71 °C
COc1nc(C)c(C)nc1NC(=S)N1CCN(c2cccc(Br)c2)CC1	136 to 138 °C
C=C(COCC(=C)C(=O)O)C(=O)O	177 °C
OCC(Oc1ccc(-c2ccccc2)cc1)c1ccccc1 (configuration not stated)	126 to 127 °C

SMILES	melting point
c1ccc(SC2CCN(C(c3ccccc3)c3ccccc3)CC2)cc1	118 to 119 °C
COc1cc2oc(=O)c(CCN3CCN(c4ccccc4OC)CC3)c(C)c2cc1OC	174 to 175 °C
Cc1noc(NC(=O)N2CCN(c3cc(-c4cccc(F)c4F)ncn3)CC2)c1C	210 to 211 °C
C1CNCCNCCNCCNCCN1	92 to 103 °C
Cc1cc(-c2nncc3c(C(C)(C)C)c(OCc4ncn(C)n4)nn23)no1	161 to 164 °C
Cc1ccc(Cl)cc1N1CCCN(C(C)C)C1=S	176 to 178 °C
CCn1c(C)c(C2(N(c3ccccc3)c3ccccc3)OC(=O)c3nccnc32)c2ccccc21 (configuration not stated)	98 to 100 °C
Cc1cccc(-c2nnnn2C)c1S(N)(=O)=O	140 to 161 °C
NC(Cc1ccc(C(=O)c2ccccc2)cc1)C(=O)O (racemic)	217 °C
O=C1c2ccccc2-c2csc(N3C(=O)c4ccccc4C3=O)c21	197 to 199 °C
CCCCCCCCCCCCCCC(=O)C(=O)NC(C=CC(=O)O)CCCC (configuration not stated)	65 to 67 °C
COC(=O)CCC(CNC(=O)C(C)(Cc1c[nH]c2ccccc12)NC(=O)OC1C2CC3CC(C2)CC1C3)c1ccccc1 (configuration not stated)	69 to 76 °C
Cc1ccc(C(=O)Nc2ccc(CN3CCN(C)CC3)c(C(F)(F)F)c2)cc1C#Cc1ccc(NC2CC2)nn1	68 to 69 °C
CC(C)=C1CC(=O)N(c2cc(F)c(C#N)cc2F)C1=O	135 °C
O=[N+]([O-])c1cc(Cl)ccc1N1CCc2ccccc21	97 to 99 °C
CCOC(=O)C1=C(C)N(Cc2ccccc2)C(C)=C(C(=O)OCC)C1c1ccc(Br)cc1	168 to 169 °C
O=C1Nc2cnc(Nc3ccc(N4CCOCC4)cc3)nc2S/C1=C/c1ccc([N+](=O)[O-])cc1	302 to 304 °C
O=C(O)CC1(c2ccccc2)CCCC1C(=O)O (configuration not stated)	205 to 208 °C
C1CCC(Nc2nc(NC3CCCCC3)nc(NC3CCCCC3)n2)CC1	225 °C
Nc1ccc(OCC(O)CN2CCN(c3ccccc3C(=O)O)CC2)cc1 (configuration not stated)	260 to 263 °C
O=[N+]([O-])c1ccc(F)nc1Nc1ccc2c(c1)OCO2	161 to 162 °C
O=C(Oc1ccccc1)c1ccc(N(Cc2ccccc2)Cc2ccccc2)cc1Cl	133 to 135 °C
Cc1ccc2c3c(ccc2n1)OCC(CN1CCC(c2nc4ccccc4o2)CC1)O3 (configuration not stated)	128 to 130 °C
Clc1ccc(-c2cccc3[nH]c4c(c23)CCN(Cc2ccccc2)CC4)c(Cl)c1	194 to 196 °C
